Assay results published in patent publication US11590167B2, “Methods and compositions for use of therapeutic T cells in combination with kinase inhibitors” (Juno Therapeutics, Inc., priority 2016, dated 2023).

Tests used:
[1] = tested on: Nalm-6 cells expressing firefly luciferase; experiment: Nalm-6 disseminated tumor xenograft mouse model, inhibitor in drinking water with suboptimal anti-CD19 CAR T dose; type: in vivo, NSG mice
Procedure: To permit assessment of the effect of a combination therapy with the inhibitor, a suboptimal dose of anti-CD19 CAR T cells was i.v. injected into the mice at 5×10^5/mouse at day 5. As a control, mice were administered the vehicle control without administration of the CAR-T cells or inhibitor.
Following treatment as described above, the tumor growth and percent survival of treated mice was determined.

anti-CD19 CAR T cells [2] = experiment: Expression of CAR-T cell surface markers over 4 days after stimulation with irradiated K562-CD19 (flow cytometry); type: cell-based, human; settings: four days after initial stimulation
Excerpt: To generate CAR-expressing T cells, T cells were isolated by immunoaffinity-based enrichment from three healthy human donor subjects, and cells from each donor were activated and transduced with a viral vector encoding an anti-CD19 CAR. The CAR contained an anti-CD19 scFv, an Ig-derived spacer, a human CD28-derived transmembrane domain, a human 4-1BB-derived intracellular signaling domain and a human CD3 zeta-derived signaling domain. The nucleic acid construct encoding the CAR also included a truncated EGFR (tEGFR) sequence for use as a transduction marker, separated from the CAR sequence by a self-cleaving T2A sequence.
CAR-expressing CD4+ and CD8+ cells were mixed 1:1 for each donor, individually, and the pooled cells for each donor assessed in vitro under various conditions.
CAR-T cells generated as described above were plated at 100,000 cells/well on 96 well Poly-D-Lysine coated plates. Irradiated K562-CD19 target cells were added at an effector to target ratio of 2.5:1.

anti-CD19 CAR T cells [3] = experiment: Cytokine production by anti-CD19 CAR T cells co-cultured with irradiated K562-CD19 (MSD); type: cell-based, human
Procedure: CAR-T cells generated as described above were plated at 100,000 cells/well on 96 well Poly-D-Lysine coated plates. Irradiated target cells (K562-CD19) were added at an effector to target ratio of 2.5:1. […] Culture supernatants were harvested at day 2, 3 or 4, and IFNγ, IL-2 and TNFa were measured from the culture supernatants using cytokine kits from Meso Scale Discovery (MSD).

[4] = tested on: EGFRt+ CAR T cells and/or tumor cells; experiment: CAR+ T cell and tumor cell counts in blood and bone marrow of Nalm-6 bearing mice; type: in vivo, NSG mice
Procedure: (§1) NSG mice described in Example 2 were intravenously injected on day 0 with 5×10^5 Nalm-6 cells expressing firefly luciferase. […] A bridging experiment confirmed that administration of ibrutinib by drinking water was equivalent to oral gavage administration (data not shown). To permit assessment of the effect of a combination therapy with the inhibitor, a suboptimal dose of anti-CD19 CAR T cells was i.v. injected into the mice at 5×10^5/mouse at day 5. As a control, mice were administered the vehicle control without administration of the CAR-T cells or inhibitor.

Itk = target: T1, Itk (Homo sapiens, UniProt Q08881); settings: reported, Byrd et al. 2016; cited from earlier work
T1 sequence (Q08881 1-620): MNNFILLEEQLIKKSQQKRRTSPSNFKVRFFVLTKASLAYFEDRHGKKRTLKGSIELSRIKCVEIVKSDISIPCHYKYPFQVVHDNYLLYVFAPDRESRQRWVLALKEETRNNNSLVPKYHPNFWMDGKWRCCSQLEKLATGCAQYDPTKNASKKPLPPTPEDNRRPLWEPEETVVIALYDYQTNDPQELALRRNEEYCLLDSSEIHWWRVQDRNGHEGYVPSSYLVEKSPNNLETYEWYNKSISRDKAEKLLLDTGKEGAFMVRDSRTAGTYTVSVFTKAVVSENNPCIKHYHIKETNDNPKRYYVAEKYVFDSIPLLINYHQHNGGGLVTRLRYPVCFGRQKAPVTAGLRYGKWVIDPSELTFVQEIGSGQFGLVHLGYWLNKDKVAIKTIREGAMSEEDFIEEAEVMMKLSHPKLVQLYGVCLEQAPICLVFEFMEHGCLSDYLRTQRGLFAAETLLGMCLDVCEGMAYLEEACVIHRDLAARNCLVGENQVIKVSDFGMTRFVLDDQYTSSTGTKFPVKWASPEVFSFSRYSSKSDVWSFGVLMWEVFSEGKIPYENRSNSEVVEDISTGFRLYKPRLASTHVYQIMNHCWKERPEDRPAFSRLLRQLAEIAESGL

anti-CD19 CAR-T cells = experiment: Serial restimulation assay, expansion of anti-CD19 CAR-T cells; type: cell-based, human
Procedure: The ability of cells to expand ex vivo following repeated stimulations in some aspects can indicate capacity of CAR-T cells to persist (e.g., following initial activation) and/or is indicative of function and/or fitness in vivo (Zhao et al. (2015) Cancer Cell, 28:415-28). Anti-CD19 CAR-T cells generated as described above were plated in triplicate at 100,000 cells/well on 96 well Poly-D-Lysine coated plates, and irradiated target cells (K562-CD19) were added at an effector to target ratio of 2.5:1. […] A total of 7 rounds of stimulation during a 25 day culture period were carried out.
For each round of stimulation, the fold change in cell number and the number of doublings was determined. […] Expansion kinetics were similar in all treatment groups after three rounds of stimulation (day 11), as observed by fold change and number of population doublings. […] The cells derived from the two donors in which these differences were observed, generally, as compared to those derived from the other donor, performed less well in the serial restimulation assay in the absence of either inhibitor.

[5] = tested on: CAR+ T cells harvested from bone marrow; experiment: Ex vivo immunophenotyping (t-SNE) of CAR+ T cells harvested from bone marrow; type: in vivo, NSG mice; settings: day 12 post CAR T transfer
Procedure: as §1
Cells were assessed for surface markers CD44, CD45RA, CD62L, CD154, CXCR3, CXCR4, PD-1 by flow cytometry and T-distributed stochastic neighbor embedding (t-SNE) high dimensional analysis was performed using FlowJo software. […] Using multivariate t-SNE FACS analysis based on pooled analysis from three mice per group, 4 distinct population clusters were identified (FIG. 8B). FACs histograms showing the individual expression profiles of CD4, CD8, CD62L, CD45RA, CD44 and CXCR3 from the 4 gated t-SNE in FIG. 8A overlaid on the expression of the total population (shaded) is shown in FIG. 8C. […] Statistically significant differences are indicated as […] (*), P<0.01 (**), P<0.001 (***), P<0.0001 (****).

## CC#CC(=O)N1CCC[C@H]1c1nc(-c2ccc(C(=O)Nc3ccccn3)cc2)c2c(N)nccn12 [compound of Formula (II)]
[1]; with CAR T, drinking water 25 mg/kg/day
  tumor growth compared with CAR T administered with vehicle alone: significantly (P<0.001) decreased tumor growth
[1]; with CAR-T cells, drinking water 25 mg/kg/day from day 4, p<0.001
  median survival compared to suboptimal anti-CD19 CAR T cell dose+vehicle: increased median survival
anti-CD19 CAR T cells [2]
  phenotype of cells as central (TCM) or effector (TEM) memory subsets by CCR7 and CD45RA: did not affect the phenotype of cells as central (TCM) or effector (TEM) memory subsets
anti-CD19 CAR T cells [3]; overall, three donors, culture supernatants, ibrutinib 0.5-500 nM, Formula (II) 50-5000 nM
  CAR T cytokine production (IFNγ, IL-2, TNFα) following stimulation with K562.CD19 cells: did not inhibit CAR T cytokine production
anti-CD19 CAR T cells [3]; some donors, compound of Formula (II)
  cytokine production: modestly increased cytokine production in some donors
[4]; CAR+ cell treatment combined with inhibitor
  tumor cells in the blood or bone marrow compared to CAR+ cells with vehicle alone: significantly fewer tumor cells were detected
[4]; blood, days 7, 12, 19 and 26 post CAR+ T cell transfer, drinking water 25 mg/kg/day
  circulating CAR+ T cells compared to CAR+ T cells and vehicle: significant increase in circulating CAR+ T cells
[4]; day 19 post CAR-T cell transfer, ibrutinib p<0.05, Formula (II) p<0.001
  number of cells in the blood: significant increase in the number of cells in the blood
Itk
  lower affinity for ITK compared with ibrutinib: > 200 times
anti-CD19 CAR-T cells; by day 18, CAR+ T cells from two of the three donors, each concentration assessed
  expansion as measured by population doublings following multiple rounds of restimulation: observed to be enhanced
anti-CD19 CAR-T cells; donor 3, highest concentration tested
  cell counts after five rounds of stimulation (day 18): Non-significant, increased cell counts
[5]
  population 2 (CD8+CD44hiCXCR3hiCD45RAloCD62Lhi) and population 4 (CD4+CD44hiCXCR3intCD45RAhiCD62Lhi) compared to control mice: An increase
[5]; pooled from three mice
  population 2 as share of CAR-T cells: 29.2%
  population 4 as share of CAR-T cells: 8.4%
